Consider 19 compounds from patent US9051326B2, “Pyrazoline derivatives and their use as selective androgen receptor modulators” (NOVARTIS AG, priority 2011, dated 2015).

This experiment deals with T1, androgen receptor (AR) (Homo sapiens, UniProt P10275).
T1 construct: transfecting C2C12 cells with a plasmid containing full-length AR along with an AR response element linked to luciferase; expressed in transfected cells; host or cells: mouse myoblastic C2C12 cells (ATCC CRL-1772), transient transfection with Lipofectamine 2000
T1 sequence (P10275 1-920): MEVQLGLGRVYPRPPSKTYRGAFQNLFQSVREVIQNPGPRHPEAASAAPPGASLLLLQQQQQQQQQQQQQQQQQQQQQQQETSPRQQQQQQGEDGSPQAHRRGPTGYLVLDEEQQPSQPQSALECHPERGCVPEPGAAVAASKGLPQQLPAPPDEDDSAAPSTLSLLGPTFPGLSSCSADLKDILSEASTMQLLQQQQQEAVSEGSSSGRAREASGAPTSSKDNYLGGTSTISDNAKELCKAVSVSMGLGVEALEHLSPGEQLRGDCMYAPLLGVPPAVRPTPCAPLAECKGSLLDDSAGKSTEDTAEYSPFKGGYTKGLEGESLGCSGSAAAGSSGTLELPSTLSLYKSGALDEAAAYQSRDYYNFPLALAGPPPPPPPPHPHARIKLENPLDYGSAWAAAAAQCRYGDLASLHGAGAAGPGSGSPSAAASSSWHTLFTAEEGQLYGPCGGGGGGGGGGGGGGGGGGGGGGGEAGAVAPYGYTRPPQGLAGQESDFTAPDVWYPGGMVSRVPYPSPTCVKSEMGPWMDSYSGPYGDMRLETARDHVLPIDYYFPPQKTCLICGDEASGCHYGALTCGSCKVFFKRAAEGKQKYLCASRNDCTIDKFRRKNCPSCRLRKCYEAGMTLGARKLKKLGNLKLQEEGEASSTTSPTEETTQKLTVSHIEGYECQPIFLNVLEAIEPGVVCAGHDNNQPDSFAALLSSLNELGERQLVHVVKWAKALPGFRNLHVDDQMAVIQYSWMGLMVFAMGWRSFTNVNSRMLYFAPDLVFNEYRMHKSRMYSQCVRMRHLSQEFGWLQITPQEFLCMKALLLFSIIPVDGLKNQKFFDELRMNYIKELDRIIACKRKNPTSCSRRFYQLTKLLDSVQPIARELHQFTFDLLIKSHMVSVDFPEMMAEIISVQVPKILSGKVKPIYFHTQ
Kind of experiment: AR transcriptional activation luciferase reporter assay in C2C12 cells (Test 1). The note with it: for % Biological activity (C2C12 cell) 100 nM: 100 nM compound; for % Biological activity (C2C12 cell) 100 nM / % Biological activity (C2C12 cell) 5 μM: activity relative to 1 μM DHT. It counts as cell-based. The protocol: A suitable assay to determine the ability of a ligand to transcriptionally activate androgen receptor (AR) is carried out using mouse myoblastic C2C12 cells. The assay involves transfecting C2C12 cells with a plasmid containing full-length AR along with an AR response element linked to luciferase (2XIDR17). The luminescence read-out at the end of the assay is measured using Victor 3 and is a direct measure of the transcriptional activity. The assay has been validated using the reference compound, BMS-564929, for which EC50 values have been reported in a similar set-up. Other tool compounds that have been used for assay validation are GSK-420A, Andarine, putative Ostarine, and LGD-2226.
C2C12 cells were obtained from ATCC (Cat # CRL-1772) and maintained in DMEM modified to contain 4 mM L-glutamine, 4.5 g/L glucose, 1 mM sodium pyruvate and 1.5 g/L sodium bicarbonate and 10% FBS.
AR-FL in pcDNA 3.1(+) and 2XIDR17 in pGL4.26 plasmids prepared using Genelute plasmid miniprep kit from Sigma Cat # PLED35
• C2C12 cells were seeded in a 96-well plate in DMEM (Dulbecco's Modified Eagle Medium) without phenol red and containing 10% CS-FBS (Charcoal-stripped Fetal Bovine Serum) at 8000 cells/well. • The next day, cells were transfected with an equimolar ratio of (Androgen Receptor-Full length) AR-FL and 2XIDR17-Luciferase at a total plasmid concentration of 200 ng/well using Lipofectamine 2000 following manufacturer's protocol. • For the transfection, 83 ng of AR-FL and 117 ng of 2XIDR17-Luciferase were in 12.5 μl of OptiMEM—Mix A. 0.4 μl of Lipofectamine 2000 was added to 12.5 μl of OptiMEM and incubated for 5 min at room temperature—Mix B. The two mixes A and B were mixed and incubated at room temperature for an additional fifteen minutes. An additional 50 μl of OptiMEM was added, gently mixed and this mixture was added to the cells in the 96-well plate. The above quantities are requirements per well of a 96-well plate. Master mixes were made for the entire plate, with proportional quantity of reagents being used. • 5 h after transfection, compounds were added to the wells in DMEM without phenol red and containing 10% CS-FBS, maintaining a final DMSO concentration of 0.5%. A typical dose response curve starts at 10 μM and includes a 7-point, log dilution, done in triplicates. • After overnight incubation with the compounds, 100 ul of working solution of Steadyglow reagent was added to the wells. • The plates were placed in a shaker for 15 min at the end of which the lysate containing luciferase was transferred to a white flat-bottom plate and read under a luminescence setting in Victor. • Background subtracted counts (Luminescence from DMSO control wells is considered the background) are used to calculate percentage activity, expressed relative to activity with 1 μM (Dihydrotestosterone) DHT (at least two sets of triplicates for 1 μM DHT are included per plate). Data Fitting: • The EC50 curves for the compounds for 8 compound concentrations were fitted by the respective function using non-linear least-squares regression in Graphpad Prism 4.0 (Graphpad Software, San Diego, Calif., USA).

Setting [1] is: mouse myoblastic C2C12 cells transfected with AR-FL and 2XIDR17-luciferase, read-out: Biological activity (C2C12 cell) EC50.

Read-outs that look alike come from different tables or passages of the source.

Broadly, the EC50 is the midpoint of the concentration-response curve.

Regarding `CO[C@@H]1C(c2ccc(C#N)c(Cl)c2C)=NN2CC[C@@H](O)[C@@H]12` [Example 2, 2-chloro-4-((3S,3aS,4R)-4-hydroxy-3-methoxy-3a,4,5,6-tetrahydro-3H-pyrrolo[1,2-b]pyrazol-2-yl)-3-methylbenzonitrile], it took 0.6 nM to reach a half-maximal effect (EC50).
Compound `Cc1c(C2=NN3CC[C@H](O)[C@H]3[C@@H]2O)ccc(C#N)c1Cl` [Example 3, 2-chloro-4-((3S,3aS,4S)-3,4-dihydroxy-3a,4,5,6-tetrahydro-3H-pyrrolo[1,2-b]pyrazol-2-yl)-3-methylbenzonitrile] registered an EC50 of 821 nM.
As for `Cc1c(C2=NN3CC[C@@H](O)[C@H]3[C@@H]2O)ccc(C#N)c1Cl` [Example 4, 2-chloro-4-((3S,3aS,4R)-3,4-dihydroxy-3a,4,5,6-tetrahydro-3H-pyrrolo[1,2-b]pyrazol-2-yl)-3-methylbenzonitrile], the “% Biological activity (C2C12 cell) 100 nM” value is 5%. Also, the “% Biological activity (C2C12 cell) 5 μM” value (5 μM compound) is listed as 32%.
For the compound `CCO[C@@H]1C(c2ccc(C#N)c(Cl)c2C)=NN2CC[C@@H](O)[C@@H]12` [Example 6, 2-chloro-4-((3S,3aS,4R)-3-ethoxy-4-hydroxy-3a,4,5,6-tetrahydro-3H-pyrrolo[1,2-b]pyrazol-2-yl)-3-methylbenzonitrile], it took 0.6 nM to reach a half-maximal effect (EC50).
As to `Cc1c(C2=NN3CC[C@H](O)[C@H]3[C@@H]2OC(C)C)ccc(C#N)c1Cl` [Example 7, 2-chloro-4-((3S,3aS,4S)-4-hydroxy-3-isopropoxy-3a,4,5,6-tetrahydro-3H-pyrrolo[1,2-b]pyrazol-2-yl)-3-methylbenzonitrile], the EC50 came out at 4 nM.
On to `CO[C@@H]1C(c2ccc(C#N)c(Cl)c2C)=NN2C[C@H](O)C[C@@H]12` [Example 8, 2-chloro-4-((3S,3aS,5R)-5-hydroxy-3-methoxy-3a,4,5,6-tetrahydro-3H-pyrrolo[1,2-b]pyrazol-2-yl)-3-methylbenzonitrile], for which the EC50 is 6.7 nM.
For `CO[C@@H]1C(c2ccc(C#N)c(Cl)c2C)=NN2CC(=O)C[C@@H]12` [Example 9, 2-chloro-4-((3S,3aS)-3-methoxy-5-oxo-3a,4,5,6-tetrahydro-3H-pyrrolo[1,2-b]pyrazol-2-yl)-3-methylbenzonitrile], the EC50 was found to be 10.5 nM.
As to `Cc1c(C2=NN3C[C@H](O)C[C@H]3[C@@H]2O)ccc(C#N)c1Cl` [Example 10, 2-chloro-4-((3S,3aS,5R)-3,5-dihydroxy-3a,4,5,6-tetrahydro-3H-pyrrolo[1,2-b]pyrazol-2-yl)-3-methylbenzonitrile], the “% Biological activity (C2C12 cell) 100 nM” value came to 4%. In addition, the “% Biological activity (C2C12 cell) 5 μM” value (5 μM compound) amounted to 2%.
In the case of `CO[C@@H]1C(c2ccc(C#N)c(Cl)c2C)=NN2CC(O)(C(F)(F)F)C[C@@H]12` (stereo partly drawn) [Example 11, 2-chloro-4-((3S,3aS)-5-hydroxy-3-methoxy-5-(trifluoromethyl)-3a,4,5,6-tetrahydro-3H-pyrrolo[1,2-b]pyrazol-2-yl)-3-methylbenzonitrile], the “% Biological activity (C2C12 cell) 100 nM” value worked out at 24%. The “% Biological activity (C2C12 cell) 5 μM” value (5 μM compound) was 33%.
Compound `CO[C@@H]1C(c2ccc(C#N)c(Cl)c2C)=NN2CC[C@@H](F)[C@@H]12` [Example 12, 2-chloro-4-((3S,3aR,4R)-4-fluoro-3-methoxy-3a,4,5,6-tetrahydro-3H-pyrrolo[1,2-b]pyrazol-2-yl)-3-methylbenzonitrile] registered an EC50 of 0.1 nM.
The compound `CO[C@@H]1C(c2ccc(C#N)c(Cl)c2C)=NN2CC[C@H](F)[C@@H]12` [Example 13, 2-chloro-4-((3S,3aR,4S)-4-fluoro-3-methoxy-3a,4,5,6-tetrahydro-3H-pyrrolo[1,2-b]pyrazol-2-yl)-3-methylbenzonitrile] had an EC50 of 1.3 nM.
Compound `CO[C@@H]1C(c2ccc(C#N)c(Cl)c2C)=NN2C[C@@H](F)C[C@@H]12` [Example 14, 2-chloro-4-((3S,3aS,5S)-5-fluoro-3-methoxy-3a,4,5,6-tetrahydro-3H-pyrrolo[1,2-b]pyrazol-2-yl)-3-methylbenzonitrile] showed an EC50 of 1.7 nM.
With `CO[C@@H]1C(c2ccc(C#N)c(Cl)c2C)=NN2CC(F)(F)C[C@@H]12` [Example 15, 2-chloro-4-((3S,3aS)-5,5-difluoro-3-methoxy-3a,4,5,6-tetrahydro-3H-pyrrolo[1,2-b]pyrazol-2-yl)-3-methylbenzonitrile], the EC50 is 0.1 nM.
Turning to `Cc1c(C2=NN3CC[C@H](O)[C@H]3[C@@H]2OCCF)ccc(C#N)c1Cl` [Example 16, 2-chloro-4-((3S,3aS,4S)-3-(2-fluoroethoxy)-4-hydroxy-3a,4,5,6-tetrahydro-3H-pyrrolo[1,2-b]pyrazol-2-yl)-3-methylbenzonitrile], the EC50 is 2 nM.
Regarding `Cc1c(C2=NN3CC[C@H](O)[C@H]3[C@@H]2OCC2CC2)ccc(C#N)c1Cl` [Example 17, 2-chloro-4-((3S,3aS,4S)-3-(cyclopropylmethoxy)-4-hydroxy-3a,4,5,6-tetrahydro-3H-pyrrolo[1,2-b]pyrazol-2-yl)-3-methylbenzonitrile], the “% Biological activity (C2C12 cell) 100 nM” value is reported as 91%. Further, where the note is “5 μM compound”, the “% Biological activity (C2C12 cell) 5 μM” value is 100%.
`CO[C@@H]1C(c2ccc(C#N)c(Cl)c2C)=NN2C[C@@H](O)C[C@@H]12` [Example 18, 2-chloro-4-((3S,3aS,5S)-5-hydroxy-3-methoxy-3a,4,5,6-tetrahydro-3H-pyrrolo[1,2-b]pyrazol-2-yl)-3-methylbenzonitrile]: the “activity at 5 μM concentration (C2C12 cell)” value (5 μM compound, symbol defined in table footnote) was “** (at 5 μM concentration, <10% activity)”.
`CO[C@@H]1C(c2ccc(C#N)c(Cl)c2C)=NN2C[C@@H](I)C[C@@H]12` [Example 19, 2-chloro-4-((3S,3aS,5S)-5-iodo-3-methoxy-3a,4,5,6-tetrahydro-3H-pyrrolo[1,2-b]pyrazol-2-yl)-3-methylbenzonitrile]: it took 7 nM to reach a half-maximal effect (EC50).
Turning to `CO[C@H]1CCN2N=C(c3ccc(C#N)c(Cl)c3C)[C@@H](OC)[C@H]12` [Example 20, 2-chloro-4-((3S,3aS,4S)-3,4-dimethoxy-3a,4,5,6-tetrahydro-3H-pyrrolo[1,2-b]pyrazol-2-yl)-3-methylbenzonitrile], the EC50 under setting [1] is 7.1 nM.
As for `COCCO[C@@H]1C(c2ccc(C#N)c(Cl)c2C)=NN2CC[C@H](O)[C@@H]12` [Example 21, 2-chloro-4-((3S,3aS,4S)-4-hydroxy-3-(2-methoxyethoxy)-3a,4,5,6-tetrahydro-3H-pyrrolo[1,2-b]pyrazol-2-yl)-3-methylbenzonitrile], the EC50 under setting [1] amounted to 0.93 nM.
